Results on 2 molecules are retold here after patent US7285564B2, “Substituted 4-amino-1-(pyridylmethyl)piperidine and related compounds” (Theravance, Inc., priority 2002, dated 2007).

The test system of this test is oxotremorine-induced salivation. As to the kind of experiment: In vivo rat salivation assay. The settings on record: rat bladder assay vs rat salivation assay. The procedure:
Female Sprague-Dawley rats weighing 200 to 300 g were anesthetized with urethane (1.5 g/kg, s.c., Sigma, St. Louis, Mo.), with a supplement of 0.25 g/kg, s.c. urethane as needed. Urethane was administered at a concentration of 0.25 g/mL.
Rats were placed on a heated blanket on their dorsal side in an inclined position (20° angle) position (head down). A swab was placed in the rat's mouth. The test compound or vehicle was administered intravenously via the tail vein. After 5 min., oxotremorine (1.0 mg/kg) was administered subcutaneously. The swab was discarded and
Replaced by a pre-weighed swab. Saliva was then collected for 10 min. and then the swab was removed and re-weighed to determine the output of saliva. Dose-response curves were fitted with a four parameter logistic equation to obtain estimates of ID50 (dose required to produce 50% of the maximal response).
By comparing the ID50 values determined in the rat bladder assay and rat salivation assay, the in vivo bladder/salivation selectivity ratio was calculated for the compounds tested.

Consider `CCN(CC)CC#CCOC(=O)C(O)(c1ccccc1)C1CCCCC1` (centres unmarked) [oxybutynin, reference compound], for which the “ID50 bladder/salivation selectivity ratio” value is given as “about 1.4”.

With `Cc1ccc(O)c([C@H](CCN(C(C)C)C(C)C)c2ccccc2)c1` [tolterodine, reference compound], the “ID50 bladder/salivation selectivity ratio” value is reported as roughly 4.8.
